Laboratory results as given in PMC10607100, “Anticancer and Antiphytopathogenic Activity of Fluorinated Isatins and Their Water-Soluble Hydrazone Derivatives” (International Journal of Molecular Sciences, 2023).
Where two headings read alike, the source gives them in different places.

How the values were obtained:
[1] = tested on: five representative phytopathogens; experiment: Agar-well diffusion, bactericidal activity over the panel of phytopathogens; type: cell-based; settings: for zone of inhibition at 2000 µM: 36 h, 2 mM solutions, dependent on the test system used, read-out: inhibition zone width (mm), range over the test systems
Summary of the method: (§1)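 Bacteria spread on agar (BP medium; GYCa for X. campestris; pH 7.2–7.4) with 6-mm wells, each receiving 150 μL compound solution. Cultures grown at 28 °C; growth-inhibition zone width measured after 36–40 h.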

[2] = tested on: Fusarium oxysporum IBPPM 543; experiment: Mycelial radial growth inhibition; type: cell-based; settings: Fusarium oxysporum; for inhibition of growth at 1 µM: 1 nmol/mL; for inhibition of growth at 1 µM / inhibition of growth at 5 µM / inhibition of growth at 20 µM / inhibition of growth at 40 µM: read-out: Inhibition value, I (%); for inhibition of growth at 5 µM: 5 nmol/mL; for inhibition of growth at 20 µM: 20 nmol/mL; for inhibition of growth at 40 µM: 40 nmol/mL; for EC50: day 5, read-out: EC50, µg/mL at Day 5, F. oxysporum
Summary of the method: (§2)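 Compounds mixed into molten GPY agar at various concentrations; centre inoculated with a 5-mm mycelial plug from 10-day cultures and incubated at 27 °C. Colony diameter compared with untreated control until control plate was covered (usually 12 days); ≥4 replicates in two experiments.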

[3] = tested on: Phytophthora cactorum VKM F-985; experiment: Mycelial radial growth inhibition; type: cell-based; settings: for inhibition of growth at 1 µM / inhibition of growth at 5 µM / inhibition of growth at 15 µM / inhibition of growth / inhibition of growth at 40 µM / EC50 / inhibition of growth at 3 µM / inhibition of growth at 7 µM: Phytophthora cactorum; for inhibition of growth at 1 µM: 1 nmol/mL; for inhibition of growth at 1 µM / inhibition of growth at 5 µM / inhibition of growth at 15 µM / inhibition of growth / inhibition of growth at 40 µM / inhibition of growth at 3 µM / inhibition of growth at 7 µM: read-out: Inhibition value, I (%); for inhibition of growth at 5 µM: 5 nmol/mL; for inhibition of growth at 15 µM: 15 nmol/mL; for inhibition of growth: 27 nmol/mL; for inhibition of growth at 40 µM: 40 nmol/mL; for EC50: read-out: EC50, µg/mL at Day 5, P. cactorum; for inhibition of growth at 3 µM: 3 nmol/mL; for inhibition of growth at 7 µM: 7 nmol/mL
Summary of the method: as §2

[4] = tested on: Xanthomonas campestris B-610; experiment: Agar-well diffusion, bactericidal activity; type: cell-based; settings: Xanthomonas campestris
Summary of the method: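 Agar-well diffusion on GYCa agar (pH 7.2–7.4) seeded with bacterial suspension; 150 μL compound solution placed in 6-mm wells. Inhibition zone width measured after 36–40 h incubation.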

[5] = tested on: Pectobacterium carotovorum subsp. carotovorum MI; experiment: Agar-well diffusion, bactericidal activity; type: cell-based; settings: Pectobacterium carotovorum, 2 mM/L
Summary of the method: as §1

[6] = tested on: Pseudomonas fluorescens EL-2.1; experiment: Agar-well diffusion, bactericidal activity; type: cell-based; settings: Pseudomonas fluorescens, EL2.1, 2 mM/L
Summary of the method: as §1

[7] = tested on: Pectobacterium atrosepticum 1043; experiment: Agar-well diffusion, bactericidal activity; type: cell-based; settings: Pectobacterium atrosepticum, 1043, 2 mM/L
Summary of the method: as §1

Micrococcus luteus B-109 = experiment: Agar-well diffusion, bactericidal activity; type: cell-based; settings: Micrococcus luteus
Summary of the method: as §1

[8] = IBPPM543, 72 h, age of the fungus 3 days
[9] = IBPPM543, 120 h, age of the fungus 5 days
[10] = IBPPM543, 168 h, age of the fungus 7 days
[11] = IBPPM543, 216 h, age of the fungus 9 days
[12] = 120 h, age of the fungus 5 days
[13] = 168 h, age of the fungus 7 days
[14] = 216 h, age of the fungus 9 days
[15] = B610, 2 mM/L, average of 3 experiments, read-out: width of the inhibition zone (mm), X. campestris
[16] = B610, Table S3, 2 mM/L, read-out: Inhibition zone width (mm), not less
[17] = average of 3 experiments, read-out: width of the inhibition zone (mm), P. carotovorum subsp. carotovorum
[18] = Table S3, read-out: Inhibition zone width (mm), not less
[19] = average of 3 experiments, read-out: width of the inhibition zone (mm), Ps. fluorescens
[20] = average of 3 experiments, read-out: width of the inhibition zone (mm), P. atrosepticum
[21] = B109, 2 mM/L, average of 3 experiments, read-out: width of the inhibition zone (mm), M. luteus

Which zone of inhibition at 2000 µM [1] does the source give for `O=C(C[n+]1ccccc1)NN=C1C(=O)N(Cc2c(F)c(F)c(F)c(F)c2F)c2ccc(F)cc21.[Cl-]` [Compound 5d, 1-(2-(2-(5-Fluoro-2-oxo-1-((perfluorophenyl)methyl)indolin-3-ylidene)hydrazinyl)-2-oxoethyl)pyridin-1-ium chloride] here?
The zone of inhibition at 2000 µM was 2 to 4 mm.

And the “bactericidal activity” value ([1]; Table S2)?
Its value is “moderate bactericidal activity”.

What about the inhibition of growth at 1 µM [2, 8] of the same compound?
The inhibition of growth at 1 µM was 9%.

And the inhibition of growth at 5 µM [2, 8]?
The inhibition of growth at 5 µM was 33%.

And the inhibition of growth at 20 µM [2, 8]?
Its inhibition of growth at 20 µM is 35%.

And the inhibition of growth at 40 µM [2, 8]?
Its inhibition of growth at 40 µM is 49%.

What about the EC50 ([2]; IBPPM543, 120 h) of the same compound?
Its EC50 is 17.4 µg/mL.

And the inhibition of growth at 1 µM [2, 9]?
Its inhibition of growth at 1 µM is 10%.

And the inhibition of growth at 5 µM [2, 9]?
Its inhibition of growth at 5 µM is 24%.

And the inhibition of growth at 20 µM [2, 9]?
Its inhibition of growth at 20 µM is 37%.

And the inhibition of growth at 40 µM [2, 9]?
The inhibition of growth at 40 µM was 54%.

What about the inhibition of growth at 1 µM [2, 10] of the same compound?
Its inhibition of growth at 1 µM is 10%.

And the inhibition of growth at 5 µM [2, 10]?
The inhibition of growth at 5 µM was 23%.

What about the inhibition of growth at 20 µM [2, 10] of the same compound?
Its inhibition of growth at 20 µM is 32%.

And the inhibition of growth at 40 µM [2, 10]?
The inhibition of growth at 40 µM was 41%.

What about the inhibition of growth at 1 µM [2, 11] of the same compound?
The inhibition of growth at 1 µM was 0%.

And the inhibition of growth at 5 µM [2, 11]?
Its inhibition of growth at 5 µM is 16%.

And the inhibition of growth at 20 µM [2, 11]?
The inhibition of growth at 20 µM was 18%.

And the inhibition of growth at 40 µM [2, 11]?
Its inhibition of growth at 40 µM is 36%.

What about the inhibition of growth at 1 µM ([3]; 72 h, age of the fungus 3 days) of the same compound?
Its inhibition of growth at 1 µM is 15%.

And the inhibition of growth at 5 µM ([3]; 72 h, age of the fungus 3 days)?
Its inhibition of growth at 5 µM is 20%.

What about the inhibition of growth at 15 µM ([3]; 72 h, age of the fungus 3 days) of the same compound?
The inhibition of growth at 15 µM was 26%.

What about the inhibition of growth ([3]; 72 h, age of the fungus 3 days) of the same compound?
Its inhibition of growth is 28%.

And the inhibition of growth at 40 µM ([3]; 72 h, age of the fungus 3 days)?
Its inhibition of growth at 40 µM is 35%.

And the EC50 ([3]; 120 h, day 5)?
Its EC50 is 24.7 µg/mL.

What about the inhibition of growth at 1 µM [3, 12] of the same compound?
Its inhibition of growth at 1 µM is 12%.

What about the inhibition of growth at 5 µM [3, 12] of the same compound?
Its inhibition of growth at 5 µM is 19%.

And the inhibition of growth at 15 µM [3, 12]?
The inhibition of growth at 15 µM was 28%.

And the inhibition of growth [3, 12]?
Its inhibition of growth is 32%.

And the inhibition of growth at 40 µM [3, 12]?
The inhibition of growth at 40 µM was 43%.

What about the inhibition of growth at 1 µM [3, 13] of the same compound?
The inhibition of growth at 1 µM was 10%.

What about the inhibition of growth at 5 µM [3, 13] of the same compound?
Its inhibition of growth at 5 µM is 16%.

And the inhibition of growth at 15 µM [3, 13]?
The inhibition of growth at 15 µM was 23%.

What about the inhibition of growth [3, 13] of the same compound?
The inhibition of growth was 25%.

And the inhibition of growth at 40 µM [3, 13]?
Its inhibition of growth at 40 µM is 33%.

What about the inhibition of growth at 1 µM [3, 14] of the same compound?
Its inhibition of growth at 1 µM is 8%.

What about the inhibition of growth at 5 µM [3, 14] of the same compound?
The inhibition of growth at 5 µM was 11%.

What about the inhibition of growth at 15 µM [3, 14] of the same compound?
The inhibition of growth at 15 µM was 13%.

And the inhibition of growth [3, 14]?
The inhibition of growth was 22%.

And the inhibition of growth at 40 µM [3, 14]?
The inhibition of growth at 40 µM was 29%.

And the zone of inhibition at 2000 µM [4, 15]?
The zone of inhibition at 2000 µM was 4 mm.

And the zone of inhibition at 2000 µM [4, 16]?
Its zone of inhibition at 2000 µM is no less than 4 mm.

And the zone of inhibition at 2000 µM [5, 17]?
Its zone of inhibition at 2000 µM is 4 mm.

What about the zone of inhibition at 2000 µM [5, 18] of the same compound?
Its zone of inhibition at 2000 µM is no less than 4 mm.

What about the zone of inhibition at 2000 µM [6, 19] of the same compound?
The zone of inhibition at 2000 µM was 2 mm.

And the zone of inhibition at 2000 µM [6, 18]?
Its zone of inhibition at 2000 µM is no less than 2 mm.

And the zone of inhibition at 2000 µM [7, 20]?
The zone of inhibition at 2000 µM was 4 mm.

What about the zone of inhibition at 2000 µM [7, 18] of the same compound?
The zone of inhibition at 2000 µM was no less than 4 mm.

What about the zone of inhibition at 2000 µM (Micrococcus luteus B-109; [21]) of the same compound?
Its zone of inhibition at 2000 µM is 3 mm.

What about the zone of inhibition at 2000 µM (Micrococcus luteus B-109; B109, Table S3, 2 mM/L, read-out: Inhibition zone width (mm), not less) of the same compound?
Its zone of inhibition at 2000 µM is no less than 3 mm.

And the melting point?
The melting point was 165 to 166 °C.

Which results are given for `O=C(C[n+]1ccccc1)NN=C1C(=O)N(Cc2cccc(C(F)(F)F)c2)c2ccc(F)cc21.[Cl-]` [Compound 5c, 1-(2-(2-(5-Fluoro-2-oxo-1-(3-(trifluoromethyl)benzyl)indolin-3-ylidene)hydrazinyl)-2-oxoethyl)pyridin-1-ium chloride]?
zone of inhibition at 2000 µM [1]: 4 to 7 mm; inhibition of growth at 1 µM [2, 8]: 22%; inhibition of growth at 5 µM [2, 8]: 40%; inhibition of growth at 20 µM [2, 8]: 49%; inhibition of growth at 40 µM [2, 8]: 57%; EC50 ([2]; IBPPM543, 120 h): 14.9 µg/mL; inhibition of growth at 1 µM [2, 9]: 19%; inhibition of growth at 5 µM [2, 9]: 36%; inhibition of growth at 20 µM [2, 9]: 45%; inhibition of growth at 40 µM [2, 9]: 55%; inhibition of growth at 1 µM [2, 10]: 13%; inhibition of growth at 5 µM [2, 10]: 28%; inhibition of growth at 20 µM [2, 10]: 35%; inhibition of growth at 40 µM [2, 10]: 52%; inhibition of growth at 1 µM [2, 11]: 3%; inhibition of growth at 20 µM [2, 11]: 21%; inhibition of growth at 40 µM [2, 11]: 51%; antagonistic effect superior to that of N-cetylpyridinium chloride ([3]; 5 days of growth): 2.3 times; inhibition of growth at 3 µM ([3]; 72 h, age of the fungus 3 days): 7%; inhibition of growth at 7 µM ([3]; 72 h, age of the fungus 3 days): 13%; inhibition of growth ([3]; 72 h, age of the fungus 3 days): 36%; inhibition of growth at 40 µM ([3]; 72 h, age of the fungus 3 days): 55%; EC50 ([3]; 120 h, day 5): 15 µg/mL; inhibition of growth at 3 µM [3, 12]: 8%; inhibition of growth at 7 µM [3, 12]: 21%; inhibition of growth [3, 12]: 38%; inhibition of growth at 40 µM [3, 12]: 64%; inhibition of growth at 3 µM [3, 13]: 4%; inhibition of growth at 7 µM [3, 13]: 14%; inhibition of growth [3, 13]: 29%; inhibition of growth at 40 µM [3, 13]: 42%; inhibition of growth at 3 µM [3, 14]: 3%; inhibition of growth at 7 µM [3, 14]: 12%; inhibition of growth [3, 14]: 18%; inhibition of growth at 40 µM [3, 14]: 36%; EC50, µg/mL at Day 5, P. cactorum ([3]; day 5): 15.40 µg/mL; zone of inhibition at 2000 µM [4, 15]: 7 mm; zone of inhibition at 2000 µM [4, 16]: ≥ 7 mm; zone of inhibition at 2000 µM [5, 17]: 5 mm; zone of inhibition at 2000 µM [5, 18]: ≥ 5 mm; zone of inhibition at 2000 µM [6, 19]: 5 mm; zone of inhibition at 2000 µM [6, 18]: ≥ 5 mm; zone of inhibition at 2000 µM [7, 20]: 5 mm; zone of inhibition at 2000 µM [7, 18]: ≥ 5 mm; zone of inhibition at 2000 µM (Micrococcus luteus B-109; [21]): 4 mm; melting point: 172 to 173 °C
